Biological target: T1, Sterol O-acyltransferase 2 (Homo sapiens, UniProt O75908)
T1 sequence (O75908 whole entry): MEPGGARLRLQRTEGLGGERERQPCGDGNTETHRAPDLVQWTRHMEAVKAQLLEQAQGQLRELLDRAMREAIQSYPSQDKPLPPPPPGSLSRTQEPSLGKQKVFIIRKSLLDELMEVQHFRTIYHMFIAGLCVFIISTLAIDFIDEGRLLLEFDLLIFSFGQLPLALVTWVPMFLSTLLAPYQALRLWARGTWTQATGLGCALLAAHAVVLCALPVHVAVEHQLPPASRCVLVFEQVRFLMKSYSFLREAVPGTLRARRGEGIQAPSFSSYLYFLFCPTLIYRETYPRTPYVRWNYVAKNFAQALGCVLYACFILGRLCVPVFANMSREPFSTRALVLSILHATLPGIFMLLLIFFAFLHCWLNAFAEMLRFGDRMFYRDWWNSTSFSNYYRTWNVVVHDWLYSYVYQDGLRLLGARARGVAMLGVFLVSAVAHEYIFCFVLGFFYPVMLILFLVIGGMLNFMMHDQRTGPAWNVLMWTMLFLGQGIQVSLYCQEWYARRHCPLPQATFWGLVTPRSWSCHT
Assay: Inhibition Assay: Methods for assessing the selectively of ACAT1 inhibitors are known in the art and can be based upon any conventional assay including, but not limited to the determination of the half maximal (50%) inhibitory concentration (IC) of a substance (i.e., 50% IC, or IC50), the binding affinity of the inhibitor (i.e., Ki), and/or the half maximal effective concentration (EC50) of the inhibitor for ACAT1 as compared to ACAT2. See, e.g., Lada, et al. (2004) J. Lipid Res. 45:378-386 and U.S. Pat. No. 5,968,749. ACAT1 and ACAT2 proteins that can be employed in such assays are well-known in the art and set forth, e.g., in GENBANK Accession Nos. NP-000010 (human ACAT1) and NP-005882 (human ACAT2). See also U.S. Pat. No. 5,834,283.

| IC50 | SMILES |
| --- | --- |
| 0.53 µM | CC(C)c1cccc(C(C)C)c1NC(=O)CC(=O)C(Cc1ccccc1)Cc1ccc(OC(=O)CCCCCCN2CCCCCC2=O)cc1 (stereo unspecified) |
| 1.5 µM | CC(C)c1cccc(C(C)C)c1NC(=O)CC(=O)C(Cc1ccccc1)Cc1ccc(O)cc1 (stereo unspecified) |
| 53 µM | CCCCCCCC(=O)CNc1cc(-c2ccccc2)nn1-c1ccccc1 |
| 97 µM | CCCCCCCCCCNc1cc(-c2ccccc2)nn1-c1ccccc1 |
| 75 µM | CCCCCCCCC(=O)CNc1cc(-c2ccccc2)nn1-c1ccccc1 |
| 20 µM | CCCC[C@H](C)[C@@H]1CC(=O)N[C@@H](Cc2ccccc2)C(=O)N[C@@H](C)C(=O)N[C@H](CC(C)C)C(=O)O1 [BEAUVERIOLIDE I] |

Source: ChEMBL document CHEMBL3886271, “Method for selectively inhibiting ACAT1 in the treatment of alzheimer's disease” (2015)
